In patent US5824692A (priority 1995, dated 1998):

The compounds below were run on dopamine release, synaptosomes from the striatal area of rat brain (assay: Dopamine release from rat striatal synaptosomes). Settings: [3H]-dopamine release, relative to (S)-(-)-nicotine.
Type: biochemical, rat (Sprague-Dawley)
Method: Determination of Dopamine Release
Dopamine release was measured by preparing synaptosomes from the striatal area of rat brain obtained from Sprague-Dawley rats generally according to the procedures set forth by Nagy et al., J. Neurochem., Vol. 43, pp. 1114-1123 (1984). Striata from 4 rats were homogenized in 2 ml of 0.32M sucrose buffered with 5 mM HEPES (pH 7.5), using a glass-Teflon tissue grinder. The homogenate was diluted to 5 ml with additional homogenization solution and centrifuged at 1,000 x g for 10 min. This procedure was repeated on the new pellet and the resulting supernatant was centrifuged at 12,000 x g for 20 min. A 3 layer discontinuous Percoll gradient consisting of 16 percent, 10 percent and 7.5 percent Percoll in HEPES-buffered sucrose was made with the final pellet dispersed in the top layer. After centrifugation at 15,000 x g for 20 min., the synaptosomes were recovered above the 16 percent layer with a Pasteur pipette, diluted with 8 ml of perfusion buffer (128 mM NaCl, 2.4 mM KCl, 3.2 mM CaCl2, 1.2 mM KH2 PO4, 1.2 mM MgSO4, 25 mM HEPES pH 7.4, 10 mM dextrose, 1 mM ascorbate, 0.01 mM pargyline), and centrifuged at 15,000 x g for 20 min. The new pellet was collected and re-suspended in perfusion buffer. The synaptosome suspension was incubated for 10 min. at 37° C. [^3 H]-Dopamine (Amersham, 40-60 Ci/mmol) was added to the suspension to give a final concentration of 0.1 uM, and the suspension was incubated for another 5 min. Using this method, 30 to 90 percent of the dopamine was taken up into the synaptosomes, as determined by scintillation counting following filtration through glass fiber filters soaked with 0.5 percent polyethyleneimine. A continuous perfusion system was used to monitor release following exposure to each ligand. Synaptosomes were loaded onto glass fiber filters (Gelman type A/E). Perfusion buffer was dripped onto the filters (0.2-0.3 ml/min.) and pulled through the filters with a peristaltic pump. Synaptosomes were washed with perfusion buffer for a minimum of 20 min. before addition of the ligand. After the addition of 0.2 ml of a solution containing various concentrations of ligand, the perfusate was collected into scintillation vials at 1 min. intervals and the dopamine released was quantified by scintillation counting. Peaks of radioactivity released above background were summed and the average basal release during that time was subtracted from the total.

In order of falling “Dopamine Release Emax” value:
1. NCC/C=C/c1cncnc1.O=C(O)/C=C/C(=O)O [Sample No. 1, (E)-4-(5-pyrimidinyl)-3-butene-1-amine monofumarate]  113 % nicotine
2. CN1CCC[C@H]1c1cccnc1 [Sample No. C-1, (S)-(-)-nicotine, reference compound]  100 % nicotine
3. COc1cncc(/C=C/CCN)c1 [Sample No. 3, (E)-4-[3-(5-methoxypyridin)yl]-3-butene-1-amine monofumarate]  95 % nicotine
4. CNCC/C=C\c1cccnc1 [Sample No. 5, (Z)-metanicotine]  88 % nicotine
5. CNCCC#Cc1cccnc1 [Sample No. 4, N-Methyl-4-(3-pyridinyl)-3-butyne-1-amine]  87 % nicotine
6. CNCC/C=C/c1cccnc1 [Sample No. C-2, (E)-metanicotine, reference compound]  80 % nicotine
7. CNCC/C=C/c1cncnc1 [Sample No. 2, (E)-N-methyl-4-(5-pyrimidinyl)-3-butene-1-amine]  77 % nicotine
8. CNCC/C=C/c1ccc(C)nc1 [Sample No. 6, (E)-N-methyl-4-[3-(6-methylpyrindin)yl]-3-butene-1-amine]  60 % nicotine
